Results published in patent US20250114345A1, “COMPOUNDS AND COMPOSITIONS AS CBP/P300 DEGRADERS AND USES THEREOF” (Oncopia Therapeutics, Inc. d/b/a/ SK Life Science Labs, priority 2023, published 2025).

Biological target: T1, p300 (Homo sapiens, UniProt Q09472)
T1 construct: host or cells: A549 P300 HiBit cells
Assay: P300 degradation, HiBit technology in A549 P300 HiBit cells (2 h)
Format: cell-based
Details: 2 hrs post treatment; for Dmax: A549, A549 P300 HiBit cells; for DC50: A549 P300 HiBit cells
Procedure, shortened: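 Degradation potency and Dmax came from HiBiT luminescence in tagged A549 cells treated with serially diluted compound (DMSO stocks at 10 mM) after overnight equilibration in F-12K with 10% heat-inactivated FBS.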

T1 sequence (Q09472 whole entry): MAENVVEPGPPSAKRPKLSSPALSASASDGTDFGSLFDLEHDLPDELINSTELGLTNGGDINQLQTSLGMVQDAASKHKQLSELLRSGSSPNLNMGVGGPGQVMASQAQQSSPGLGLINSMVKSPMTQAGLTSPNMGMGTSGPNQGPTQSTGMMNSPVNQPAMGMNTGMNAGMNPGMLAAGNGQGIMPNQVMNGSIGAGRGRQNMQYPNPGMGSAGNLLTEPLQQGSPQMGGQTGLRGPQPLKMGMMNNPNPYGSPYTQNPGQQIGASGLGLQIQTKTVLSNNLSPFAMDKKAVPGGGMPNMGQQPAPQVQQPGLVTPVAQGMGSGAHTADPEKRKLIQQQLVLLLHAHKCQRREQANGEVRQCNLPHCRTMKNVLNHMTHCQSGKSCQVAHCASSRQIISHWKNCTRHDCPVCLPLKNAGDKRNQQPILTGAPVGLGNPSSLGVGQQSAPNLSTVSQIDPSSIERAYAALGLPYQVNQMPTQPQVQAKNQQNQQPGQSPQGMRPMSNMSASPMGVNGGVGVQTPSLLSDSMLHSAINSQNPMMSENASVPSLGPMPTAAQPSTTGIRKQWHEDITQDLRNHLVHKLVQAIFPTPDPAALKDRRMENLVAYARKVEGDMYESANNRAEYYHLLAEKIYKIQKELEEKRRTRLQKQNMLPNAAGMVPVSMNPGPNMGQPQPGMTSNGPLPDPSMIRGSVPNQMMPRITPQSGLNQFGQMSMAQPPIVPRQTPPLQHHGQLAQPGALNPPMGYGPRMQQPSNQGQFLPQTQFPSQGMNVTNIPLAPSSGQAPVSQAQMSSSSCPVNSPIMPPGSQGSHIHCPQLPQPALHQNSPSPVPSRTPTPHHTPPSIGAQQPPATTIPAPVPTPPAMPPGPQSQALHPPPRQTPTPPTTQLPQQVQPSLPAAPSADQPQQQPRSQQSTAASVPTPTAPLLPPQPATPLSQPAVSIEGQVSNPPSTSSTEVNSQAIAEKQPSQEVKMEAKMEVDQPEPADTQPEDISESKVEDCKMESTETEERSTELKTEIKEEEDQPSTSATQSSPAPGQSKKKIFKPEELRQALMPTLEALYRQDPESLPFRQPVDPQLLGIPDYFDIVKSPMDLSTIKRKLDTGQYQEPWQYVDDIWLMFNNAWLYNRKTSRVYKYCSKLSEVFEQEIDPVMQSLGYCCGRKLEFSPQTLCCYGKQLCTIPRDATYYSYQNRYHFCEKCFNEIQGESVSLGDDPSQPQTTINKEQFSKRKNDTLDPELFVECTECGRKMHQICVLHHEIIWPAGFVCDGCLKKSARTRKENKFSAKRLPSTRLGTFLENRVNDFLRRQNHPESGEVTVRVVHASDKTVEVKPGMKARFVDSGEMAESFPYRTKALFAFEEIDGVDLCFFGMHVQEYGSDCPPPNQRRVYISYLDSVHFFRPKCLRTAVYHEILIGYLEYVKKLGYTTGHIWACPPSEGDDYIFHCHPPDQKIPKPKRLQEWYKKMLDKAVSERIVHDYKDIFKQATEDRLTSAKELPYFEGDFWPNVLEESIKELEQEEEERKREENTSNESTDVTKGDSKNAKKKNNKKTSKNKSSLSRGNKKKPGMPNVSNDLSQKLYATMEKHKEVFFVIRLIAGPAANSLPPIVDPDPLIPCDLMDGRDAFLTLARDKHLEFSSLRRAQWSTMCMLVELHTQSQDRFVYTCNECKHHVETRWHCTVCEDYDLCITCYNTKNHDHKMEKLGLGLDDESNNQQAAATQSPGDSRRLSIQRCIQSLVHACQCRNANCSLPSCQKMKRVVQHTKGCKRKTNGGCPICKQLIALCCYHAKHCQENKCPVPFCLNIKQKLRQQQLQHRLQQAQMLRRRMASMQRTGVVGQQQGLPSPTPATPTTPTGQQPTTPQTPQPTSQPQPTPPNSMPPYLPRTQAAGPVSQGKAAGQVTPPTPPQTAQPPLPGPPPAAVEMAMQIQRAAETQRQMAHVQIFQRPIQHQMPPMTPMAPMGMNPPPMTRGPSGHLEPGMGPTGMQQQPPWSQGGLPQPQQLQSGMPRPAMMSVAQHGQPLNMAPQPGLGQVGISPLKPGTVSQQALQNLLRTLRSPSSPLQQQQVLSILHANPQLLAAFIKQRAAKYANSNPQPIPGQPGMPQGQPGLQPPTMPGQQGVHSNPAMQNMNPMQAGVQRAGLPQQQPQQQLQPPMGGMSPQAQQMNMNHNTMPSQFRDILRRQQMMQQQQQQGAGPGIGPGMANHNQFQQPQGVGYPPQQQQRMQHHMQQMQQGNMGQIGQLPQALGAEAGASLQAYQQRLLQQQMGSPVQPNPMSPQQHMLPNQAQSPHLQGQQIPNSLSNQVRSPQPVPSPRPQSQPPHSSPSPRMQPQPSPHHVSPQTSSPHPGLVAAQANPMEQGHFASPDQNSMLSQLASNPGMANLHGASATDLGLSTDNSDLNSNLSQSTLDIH

| Dmax | DC50 | SMILES |
| --- | --- | --- |
| > 80% | < 0.001 µM | CN1CCN(c2ccc3c(c2)n(C)c(=O)n3C)c2cnc(-c3ccc(C(=O)NCC#Cc4cc5c(C6CCC(=O)NC6=O)nccc5o4)nc3)nc21 (centres unmarked) [Example A245, 5-(5-(1,3-dimethyl-2-oxo-2,3-dihydro-1H-benzo[d]imidazol-5-yl)-8-methyl-5,6,7,8-tetrahydropteridin-2-yl)-N-(3-(4-(2,6-dioxopiperidin-3-yl)furo[3,2-c]pyridin-2-yl)prop-2-yn-1-yl) picolinamide] |
| 40 to 59% | 0.001 to 0.0099 µM | Cn1c(=O)n(C)c2cc(N3CCOc4nc(-c5ccc(C(=O)NCC#Cc6ccn7ncc(C8CCC(=O)NC8=O)c7c6)nc5)ncc43)ccc21 (centres unmarked) [Example A246, 5-(5-(1,3-dimethyl-2-oxo-2,3-dihydro-1H-benzo[d]imidazol-5-yl)-6,7-dihydro-5H-pyrimido[4,5-b][1,4]oxazin-2-yl)-N-(3-(3-(2,6-dioxopiperidin-3-yl)pyrazolo[1,5-a]pyridin-5-yl)prop-2-yn-1-yl)picolinamide] |
| 20 to 39% | 0.01 to 0.099 µM | CC(C)c1cc(-c2cccc3cc(-c4ccc(C(=O)NCC#Cc5cnc6c(c5)N(C5CCC(=O)NC5=O)CC6)nc4)ncc23)cc2c1n(C)c(=O)n2C (centres unmarked) [Example A249, N-(3-(1-(2,6-dioxo-piperidin-3-yl)-2,3-dihydro-1H-pyrrolo [3,2-b]pyridin-6-yl)prop-2-yn-1-yl)-5-(8-(7-isopropyl-1,3-dimethyl-2-oxo-2,3-dihydro-1H-benzo[d]imidazol-5-yl)isoquinolin-3-yl)picolinamide] |
| > 80% | 0.001 to 0.0099 µM | Cc1cc(-c2ncc3c(n2)OCCN3c2cc(C3CCOCC3)c3c(c2)n(C)c(=O)n3C)cnc1C(=O)NCC#Cc1cc2c(C3CCC(=O)NC3=O)cccc2o1 (centres unmarked) [Example A252, 5-(5-(1,3-dimethyl-2-oxo-7-(tetrahydro-2H-pyran-4-yl)-2,3-dihydro-1H-benzo[d]imidazol-5-yl)-6,7-dihydro-5H-pyrimido[4,5-b][1,4]oxazin-2-yl)-N-(3-(4-(2,6-dioxopiperidin-3-yl)benzofuran-2-yl)prop-2-yn-1-yl)-3-methylpicolinamide] |
| > 80% | < 0.001 µM | Cn1c(=O)n(C)c2c(N3CC4CCC(C3)O4)nc(-c3cccc4cc(-c5ccc(C(=O)NCC#Cc6cc7c(C8CCC(=O)NC8=O)cccc7o6)nc5)ncc34)cc21 (centres unmarked) [Example A253, 5-(8-(4-(8-oxa-3-azabicyclo[3.2.1]octan-3-yl)-1,3-dimethyl-2-oxo-2,3-dihydro-1H-imidazo[4,5-c]pyridin-6-yl)isoquinolin-3-yl)-N-(3-(4-(2,6-dioxopiperidin-3-yl)benzofuran-2-yl)prop-2-yn-1-yl)picolinamide] |
| > 80% | 0.001 to 0.0099 µM | Cc1cc(-c2ncc(N(C)c3cc(C4CCOCC4)c4c(c3)n(C)c(=O)n4C)cn2)cnc1C(=O)NCC#Cc1cc2c(C3CCC(=O)NC3=O)cccc2o1 (centres unmarked) [Example A256, 5-(5-((1,3-dimethyl-2-oxo-7-(tetrahydro-2H-pyran-4-yl)-2,3-dihydro-1H-benzo[d]imidazol-5-yl)(methyl)amino)pyrimidin-2-yl)-N-(3-(4-(2,6-dioxo-piperidin-3-yl)benzo-furan-2-yl)prop-2-yn-1-yl)-3-methylpicolinamide] |
| 60 to 79% | 0.001 to 0.0099 µM | Cc1cc(-c2cc(F)c(Nc3cc(C4CCOCC4)c4c(c3)n(C)c(=O)n4C)cc2C(F)F)cnc1C(=O)NCC#Cc1cc2c(C3CCC(=O)NC3=O)cccc2o1 (centres unmarked) [Example A257, 5-(2-(difluoromethyl)-4-((1,3-dimethyl-2-oxo-7-(tetrahydro-2H-pyran-4-yl)-2,3-dihydro-1H-benzo [d]imidazol-5-yl)amino)-5-fluoro-phenyl)-N-(3-(4-(2,6-dioxopiperidin-3-yl)benzofuran-2-yl)prop-2-yn-1-yl)-3-methylpicolinamide] |
| > 80% | 0.01 to 0.099 µM | Cc1cc(-c2ncc3c(n2)OCCN3c2ccc3c(c2)n(C)c(=O)n3C)cnc1C(=O)NCC#Cc1ccc2occ(C34CC(C3)C(=O)NC4=O)c2c1 [Example A262, 5-(5-(1,3-dimethyl-2-oxo-2,3-dihydro-1H-benzo[d]imidazol-5-yl)-6,7-dihydro-5H-pyrimido[4,5-b] [1,4]oxazin-2-yl)-N-(3-(3-(2,4-dioxo-3-azabicyclo[3.1.1]heptan-1-yl)benzofuran-5-yl)prop-2-yn-1-yl)-3-methylpicolinamide] |
| > 80% | 0.001 to 0.0099 µM | Cn1c(=O)n(C)c2cc(N3CC(C)(C)Oc4nc(-c5ccc(C(=O)NCC#Cc6cc7c(C8CCC(=O)NC8=O)cccc7o6)nc5)ncc43)ccc21 (centres unmarked) [Example A264, 5-(5-(1,3-dimethyl-2-oxo-2,3-dihydro-1H-benzo[d]imidazol-5-yl)-7,7-dimethyl-6,7-dihydro-5H-pyrimido [4,5-b][1,4]oxazin-2-yl)-N-(3-(4-(2,6-dioxopiperidin-3-yl)benzofuran-2-yl)prop-2-yn-1-yl)picolinamide] |
| 20 to 39% | 0.01 to 0.099 µM | Cn1c(=O)n(C)c2c(F)cc(N3CCOc4nc(-c5ccc(C(=O)NCC#Cc6cc7c(C8CCC(=O)NC8=O)cccc7o6)nc5)ncc43)cc21 (centres unmarked) [Example A265, N-(3-(4-(2,6-dioxo-piperidin-3-yl)benzofuran-2-yl)prop-2-yn-1-yl)-5-(5-(7-fluoro-1,3-dimethyl-2-oxo-2,3-dihydro-1H-benzo[d]imidazol-5-yl)-6,7-dihydro-5H-pyrimido[4,5-b][1,4]oxazin-2-yl)picolinamide] |
| > 80% | 0.001 to 0.0099 µM | CCn1c(=O)n(C)c2ccc(-c3cccc4cc(-c5ccc(C(=O)NCC#Cc6cc7c(C8CCC(=O)NC8=O)cccc7o6)nc5)ncc34)cc21 (centres unmarked) [Example A267, N-(3-(4-(2,6-dioxo-piperidin-3-yl)benzofuran-2-yl)prop-2-yn-1-yl)-5-(8-(3-ethyl-1-methyl-2-oxo-2,3-dihydro-1H-benzo [d]imidazol-5-yl)isoquinolin-3-yl)picolinamide] |
| 20 to 39% | 0.01 to 0.099 µM | Cn1c(=O)n(C)c2ncc(N3CCOc4nc(-c5ccc(C(=O)NCC#Cc6cc7c(C8CCC(=O)NC8=O)cccc7o6)nc5)ncc43)cc21 (centres unmarked) [Example A268, 5-(5-(1,3-dimethyl-2-oxo-2,3-dihydro-1H-imidazo[4,5-b]pyridin-6-yl)-6,7-dihydro-5H-pyrimido[4,5-b] [1,4]oxazin-2-yl)-N-(3-(4-(2,6-dioxopiperidin-3-yl)benzofuran-2-yl)prop-2-yn-1-yl)picolinamide] |
| 60 to 79% | 0.01 to 0.099 µM | CCc1cc(-c2cccc3cc(-c4ccc(C(=O)NCC#Cc5ccc6c(C)nn(C7CCC(=O)NC7=O)c6c5)nc4)ncc23)c2cc(C)c(=O)n(C)c2c1 (centres unmarked) [Example B1, N-(3-(1-(2,6-Dioxopiperidin-3-yl)-3-methyl-1H-indazol-6-yl)prop-2-yn-1-yl)-5-(8-(7-ethyl-1,3-dimethyl-2-oxo-1,2-dihydroquinolin-5-yl)isoquinolin-3-yl)picolinamide] |
| 20 to 39% | 0.01 to 0.099 µM | CCc1cc(-c2cccc3cc(-c4ccc(C(=O)NCC#Cc5cc6c(cnn6C6CCC(=O)NC6=O)cc5C)nc4)ncc23)c2cc(C)c(=O)n(C)c2c1 (centres unmarked) [Example B3, N-(3-(1-(2,6-Dioxopiperidin-3-yl)-5-methyl-1H-indazol-6-yl)prop-2-yn-1-yl)-5-(8-(7-ethyl-1,3-dimethyl-2-oxo-1,2-dihydroquinolin-5-yl)isoquinolin-3-yl)picolinamide] |
| 60 to 79% | 0.01 to 0.099 µM | CCc1cc(-c2cccc3cc(-c4ccc(C(=O)NCC#Cc5cc(C)c6cnn(C7CCC(=O)NC7=O)c6c5)nc4)ncc23)c2cc(C)c(=O)n(C)c2c1 (centres unmarked) [Example B6, N-(3-(1-(2,6-Dioxopiperidin-3-yl)-4-methyl-1H-indazol-6-yl)prop-2-yn-1-yl)-5-(8-(7-ethyl-1,3-dimethyl-2-oxo-1,2-dihydroquinolin-5-yl)isoquinolin-3-yl)picolinamide] |
| < 20% | > 1 µM | CCc1cc(S(=O)(=O)c2ccc(-c3cnc(C(=O)NCC#Cc4cccc(NC5CCC(=O)NC5=O)c4)c(C)c3)nc2)c2cc(C)c(=O)n(C)c2c1 (centres unmarked) [Example B10, N-(3-(3-((2,6-Dioxopiperidin-3-yl)amino)phenyl)prop-2-yn-1-yl)-5-((7-ethyl-1,3-dimethyl-2-oxo-1,2-dihydroquinolin-5-yl)sulfonyl)-5′-methyl-[2,3′-bipyridine]-6′-carboxamide] |
| > 80% | 0.01 to 0.099 µM | CCc1cc(N(C)c2ccc(-c3cnc(C(=O)NCC#Cc4cccc(NC5CCC(=O)NC5=O)c4)c(C)c3)c(Cl)c2)c2cc(C)c(=O)n(C)c2c1 (centres unmarked) [Example B11, 5-(2-Chloro-4-((7-ethyl-1,3-dimethyl-2-oxo-1,2-dihydroquinolin-5-yl)(methyl)amino)phenyl)-N-(3-(3-((2,6-dioxopiperidin-3-yl)amino)phenyl)prop-2-yn-1-yl)-3-methylpicolinamide] |
| < 20% | > 1 µM | CCc1cc(-c2cccc3cc(-c4ccc(C(=O)NCC#Cc5ccc6c(c5)ncn6C5CCC(=O)NC5=O)nc4)ncc23)c2cc(C)c(=O)n(C)c2c1 (centres unmarked) [Example B12, N-(3-(1-(2,6-Dioxopiperidin-3-yl)-1H-benzo[d]imidazol-5-yl)prop-2-yn-1-yl)-5-(8-(7-ethyl-1,3-dimethyl-2-oxo-1,2-dihydroquinolin-5-yl)isoquinolin-3-yl)picolinamide] |
| > 80% | 0.001 to 0.0099 µM | CCc1cc(-c2cccc3cc(-c4ccc(C(=O)NCC#Cc5ccc6cnn(C7CCC(=O)NC7=O)c6c5)nc4)ncc23)c2c(n1)N(C)C(=O)N(C)C2 (centres unmarked) [Example B13, N-(3-(1-(2,6-Dioxopiperidin-3-yl)-1H-indazol-6-yl)prop-2-yn-1-yl)-5-(8-(7-ethyl-1,3-dimethyl-2-oxo-1,2,3,4-tetrahydropyrido[2,3-d]pyrimidin-5-yl)isoquinolin-3-yl)picolinamide] |
